Test results from patent publication EP1247803A2, “Indolinone compounds suitable for modulation of protein kinases” (Sugen, Inc., priority 1996, dated 1998).

What was measured:
MET = MET biochemical kinase assay; set-up: species or system human; concentration or dose not given beside the values
Summary of the method: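 Colorimetric signal from an HRP-linked anti-phosphotyrosine antibody with TMB measures phosphate incorporated into immobilised MET. The receptor is pulled from lysates by a polyclonal antibody against its cytoplasmic domain, then reacts in ATP- and metal-containing buffer with test compound.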

FLK-1 receptor = molecular target: T1, FLK-1 receptor (Mus musculus, UniProt P35918); test: FLK-1 ELISA (kinase activity of the FLK-1 receptor in FLK-1/NIH3T3 cells, VEGF stimulated); format: cell-based
T1 construct: expressed in transfected cells; host or cells: NIH3T3 C7#3
Summary of the method: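 FLK-1-expressing NIH3T3 C7#3 cells, starved overnight in 0.1% FBS medium, were treated with compounds at a 1:200 final dilution (0.5% DMSO) for 2 h at 37 °C, with VEGF stimulation. FLK-1 kinase activity was read by ELISA on anti-rabbit IgG plates using affinity-purified anti-FLK-1 antiserum.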

PDGF-R = PDGF-R (Homo sapiens, UniProt P09619); test: PDGF-R ELISA; format: cell-based
Text: A PDGF-R ELISA is described in International Patent Publication No. WO 96/40116, published December 19, 1996 by Tang et al.

Chain of PDGF-R (P09619 33-1106, species assumed): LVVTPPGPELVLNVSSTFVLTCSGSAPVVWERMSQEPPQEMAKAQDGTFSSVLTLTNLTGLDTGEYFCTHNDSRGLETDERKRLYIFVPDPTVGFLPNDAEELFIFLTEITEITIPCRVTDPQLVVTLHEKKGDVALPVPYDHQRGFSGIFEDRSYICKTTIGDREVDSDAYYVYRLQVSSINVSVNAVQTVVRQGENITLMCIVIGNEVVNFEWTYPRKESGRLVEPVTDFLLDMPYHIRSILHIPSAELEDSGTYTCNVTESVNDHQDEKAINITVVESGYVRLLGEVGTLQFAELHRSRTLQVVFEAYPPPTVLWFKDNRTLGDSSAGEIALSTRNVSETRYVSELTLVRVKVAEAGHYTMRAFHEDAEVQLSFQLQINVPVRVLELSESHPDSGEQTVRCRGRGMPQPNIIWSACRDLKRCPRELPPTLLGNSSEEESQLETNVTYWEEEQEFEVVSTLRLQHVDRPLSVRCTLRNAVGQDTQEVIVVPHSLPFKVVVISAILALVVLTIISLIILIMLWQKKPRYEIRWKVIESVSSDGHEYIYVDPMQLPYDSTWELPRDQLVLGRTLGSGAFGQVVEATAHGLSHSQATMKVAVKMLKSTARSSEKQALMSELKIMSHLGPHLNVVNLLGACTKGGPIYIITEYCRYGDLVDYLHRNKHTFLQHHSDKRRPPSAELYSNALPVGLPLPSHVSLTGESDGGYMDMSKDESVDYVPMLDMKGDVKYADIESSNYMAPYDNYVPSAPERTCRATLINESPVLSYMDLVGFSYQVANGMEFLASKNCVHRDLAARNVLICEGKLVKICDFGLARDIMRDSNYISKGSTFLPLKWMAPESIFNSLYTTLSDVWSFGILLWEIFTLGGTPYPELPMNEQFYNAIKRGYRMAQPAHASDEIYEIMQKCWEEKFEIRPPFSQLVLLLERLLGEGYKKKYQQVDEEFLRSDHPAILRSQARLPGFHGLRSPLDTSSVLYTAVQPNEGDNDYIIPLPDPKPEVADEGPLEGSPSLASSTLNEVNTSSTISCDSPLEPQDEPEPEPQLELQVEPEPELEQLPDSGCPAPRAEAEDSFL
T1 sequence (P35918 20-1345): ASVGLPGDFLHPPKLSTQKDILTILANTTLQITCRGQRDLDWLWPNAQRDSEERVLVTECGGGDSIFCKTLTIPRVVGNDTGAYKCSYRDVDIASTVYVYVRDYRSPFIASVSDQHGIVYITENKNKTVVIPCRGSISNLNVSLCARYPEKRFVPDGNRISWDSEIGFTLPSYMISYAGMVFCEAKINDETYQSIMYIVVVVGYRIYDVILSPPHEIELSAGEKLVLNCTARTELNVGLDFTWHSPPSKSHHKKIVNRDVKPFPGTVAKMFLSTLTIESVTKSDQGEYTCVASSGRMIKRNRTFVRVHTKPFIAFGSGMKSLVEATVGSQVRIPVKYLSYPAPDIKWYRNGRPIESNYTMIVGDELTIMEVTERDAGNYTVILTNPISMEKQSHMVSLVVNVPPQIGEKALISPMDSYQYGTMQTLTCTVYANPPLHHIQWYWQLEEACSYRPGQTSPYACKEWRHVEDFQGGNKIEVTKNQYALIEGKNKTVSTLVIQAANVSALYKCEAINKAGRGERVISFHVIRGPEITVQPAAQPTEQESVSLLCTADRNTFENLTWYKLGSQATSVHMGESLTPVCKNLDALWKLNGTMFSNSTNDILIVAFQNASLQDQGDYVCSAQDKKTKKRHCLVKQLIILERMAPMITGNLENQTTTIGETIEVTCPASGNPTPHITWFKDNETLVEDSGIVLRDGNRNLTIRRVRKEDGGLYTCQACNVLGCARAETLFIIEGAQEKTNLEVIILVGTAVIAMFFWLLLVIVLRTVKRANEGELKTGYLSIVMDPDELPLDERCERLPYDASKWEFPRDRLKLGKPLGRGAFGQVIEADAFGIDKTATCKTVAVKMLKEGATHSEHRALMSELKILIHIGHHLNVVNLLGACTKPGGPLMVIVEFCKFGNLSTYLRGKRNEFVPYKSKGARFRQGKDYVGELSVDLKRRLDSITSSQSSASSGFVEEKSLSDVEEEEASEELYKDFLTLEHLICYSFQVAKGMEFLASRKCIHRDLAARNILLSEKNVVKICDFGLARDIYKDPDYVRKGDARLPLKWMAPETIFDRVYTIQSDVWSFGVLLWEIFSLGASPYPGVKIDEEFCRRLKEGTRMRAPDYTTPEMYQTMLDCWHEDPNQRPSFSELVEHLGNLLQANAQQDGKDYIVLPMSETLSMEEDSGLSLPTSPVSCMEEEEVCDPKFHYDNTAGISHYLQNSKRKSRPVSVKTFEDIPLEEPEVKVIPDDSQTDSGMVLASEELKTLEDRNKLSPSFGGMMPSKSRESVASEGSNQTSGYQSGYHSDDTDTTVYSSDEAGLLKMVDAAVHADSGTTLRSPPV

SMILES: CNS(=O)(=O)c1ccc2c(c1)C(=Cc1[nH]c(C)c(Br)c1Br)C(=O)N2 [10717/D11]
- Met Kinase % Inhibition (MET): 55.3%
- Fik Kinase %Inhibition (FLK-1 receptor): 11.6%

SMILES: CCOc1ccccc1C=C1C(=O)Nc2ccc(S(=O)(=O)Nc3ccc(C(F)(F)F)cc3)cc21 [10717/E02]
- Met Kinase % Inhibition (MET): 24.0%
- Fik Kinase %Inhibition (FLK-1 receptor): 17.9%

SMILES: O=C1Nc2ccc(S(=O)(=O)Nc3ccc(C(F)(F)F)cc3)cc2C1=Cc1cccs1 [10717/E03]
- Met Kinase % Inhibition (MET): 52.2%
- Fik Kinase %Inhibition (FLK-1 receptor): 19.0%

SMILES: Cn1cccc1C=C1C(=O)Nc2ccc(S(=O)(=O)Nc3ccc(C(F)(F)F)cc3)cc21 [10717/E04]
- Met Kinase % Inhibition (MET): 29.4%
- Fik Kinase %Inhibition (FLK-1 receptor): 6.1%

SMILES: O=C1Nc2ccc(S(=O)(=O)Nc3ccc(C(F)(F)F)cc3)cc2C1=Cc1ccc(F)cc1 [10717/E05]
- Met Kinase % Inhibition (MET): 39.1%
- Fik Kinase %Inhibition (FLK-1 receptor): 13.2%

SMILES: O=C1Nc2ccc(S(=O)(=O)Nc3ccc(C(F)(F)F)cc3)cc2C1=Cc1c[nH]c2ccccc12 [10717/E06]
- Met Kinase % Inhibition (MET): 24.8%
- Fik Kinase %Inhibition (FLK-1 receptor): 7.5%

SMILES: Cc1ccc(C=C2C(=O)Nc3ccc(S(=O)(=O)Nc4ccc(C(F)(F)F)cc4)cc32)s1 [10717/E07]
- Met Kinase % Inhibition (MET): 41.0%
- Fik Kinase %Inhibition (FLK-1 receptor): 15.3%

SMILES: O=C1Nc2ccc(S(=O)(=O)Nc3ccc(C(F)(F)F)cc3)cc2C1=Cc1ccc(Br)cc1 [10717/E08]
- Met Kinase % Inhibition (MET): 51.7%
- Fik Kinase %Inhibition (FLK-1 receptor): 13.2%

SMILES: CC(C)(C)c1cc(C=C2C(=O)Nc3ccc(CCCl)cc32)cc([N+](=O)[O-])c1O [10722/G02]
- PDGF Kinase %Inhibition (PDGF-R): 14.6%
- Met Kinase % Inhibition (MET): 43.0%
- Fik Kinase %Inhibition (FLK-1 receptor): 15.1%

SMILES: O=C1Nc2ccc(CCCl)cc2C1=Cc1c(O)cc(O)cc1O [10722/G03]
- PDGF Kinase %Inhibition (PDGF-R): -3.7%
- Met Kinase % Inhibition (MET): 52.2%
- Fik Kinase %Inhibition (FLK-1 receptor): 5.3%

SMILES: O=C1Nc2ccc(CCCl)cc2C1=Cc1ccc([N+](=O)[O-])s1 [10722/G04]
- PDGF Kinase %Inhibition (PDGF-R): 11.7%
- Met Kinase % Inhibition (MET): 63.2%
- Fik Kinase %Inhibition (FLK-1 receptor): 7.2%

SMILES: O=C1Nc2ccc(CCCl)cc2C1=Cc1ccc(C(=O)O)cc1 [10722/G05]
- PDGF Kinase %Inhibition (PDGF-R): -6.0%
- Met Kinase % Inhibition (MET): 9.7%
- Fik Kinase %Inhibition (FLK-1 receptor): 10.8%

SMILES: O=C1Nc2ccc(CCCl)cc2C1=Cc1ccc(F)cc1F [10722/G06]
- PDGF Kinase %Inhibition (PDGF-R): -6.0%
- Met Kinase % Inhibition (MET): 12.2%
- Fik Kinase %Inhibition (FLK-1 receptor): 7.4%

SMILES: Cc1cc(C=C2C(=O)Nc3ccc(CCCl)cc32)cc(C)c1O [10722/G07]
- PDGF Kinase %Inhibition (PDGF-R): -3.7%
- Met Kinase % Inhibition (MET): 41.2%
- Fik Kinase %Inhibition (FLK-1 receptor): 8.0%

SMILES: CC(C)(C)c1cc(C=C2C(=O)Nc3ccc(CCCl)cc32)cc(Cl)c1O [10722/G08]
- PDGF Kinase %Inhibition (PDGF-R): 12.9%
- Met Kinase % Inhibition (MET): 66.1%
- Fik Kinase %Inhibition (FLK-1 receptor): 8.2%

SMILES: O=C1Nc2ccc(CCCl)cc2C1=Cc1csc([N+](=O)[O-])c1 [10722/G09]
- PDGF Kinase %Inhibition (PDGF-R): 0.9%
- Met Kinase % Inhibition (MET): 51.0%
- Fik Kinase %Inhibition (FLK-1 receptor): 6.1%

SMILES: CCCCN(CCCC)c1ccc(C=C2C(=O)Nc3ccc(CCCl)cc32)cc1 [10722/G10]
- PDGF Kinase %Inhibition (PDGF-R): 16.9%
- Met Kinase % Inhibition (MET): 27.0%
- Fik Kinase %Inhibition (FLK-1 receptor): -1.7%

SMILES: O=C1Nc2ccc(CCCl)cc2C1=Cc1ccc(C(F)(F)F)cc1 [10722/G11]
- PDGF Kinase %Inhibition (PDGF-R): 0.3%
- Met Kinase % Inhibition (MET): 35.3%
- Fik Kinase %Inhibition (FLK-1 receptor): 0.6%

SMILES: O=C1Nc2c(Br)cc(Br)cc2C1=Cc1ccc(O)c(O)c1O [10723/A02]
- PDGF Kinase %Inhibition (PDGF-R): 64.4%
- Met Kinase % Inhibition (MET): 100.8%
- Fik Kinase %Inhibition (FLK-1 receptor): -5.5%

SMILES: COc1cccc(C=C2C(=O)Nc3c(Br)cc(Br)cc32)c1O [10723/A03]
- PDGF Kinase %Inhibition (PDGF-R): 11.7%
- Met Kinase % Inhibition (MET): 76.5%
- Fik Kinase %Inhibition (FLK-1 receptor): 1.2%

SMILES: O=C1Nc2c(Br)cc(Br)cc2C1=Cc1cc(O)c(O)c(Br)c1 [10723/A04]
- PDGF Kinase %Inhibition (PDGF-R): 13.1%
- Met Kinase % Inhibition (MET): 97.9%
- Fik Kinase %Inhibition (FLK-1 receptor): 27.2%

SMILES: CC(=O)Oc1ccc(C=C2C(=O)Nc3c(Br)cc(Br)cc32)cc1OC(C)=O [10723/A05]
- PDGF Kinase %Inhibition (PDGF-R): 17.9%
- Met Kinase % Inhibition (MET): 75.7%
- Fik Kinase %Inhibition (FLK-1 receptor): -17.8%

SMILES: Cc1cc(C=C2C(=O)Nc3c(Br)cc(Br)cc32)ccc1O [10723/A06]
- PDGF Kinase %Inhibition (PDGF-R): 43.6%
- Met Kinase % Inhibition (MET): 79.1%
- Fik Kinase %Inhibition (FLK-1 receptor): 8.6%

SMILES: O=C1Nc2c(Br)cc(Br)cc2C1=Cc1ccccc1Br [10723/A07]
- PDGF Kinase %Inhibition (PDGF-R): 22.1%
- Met Kinase % Inhibition (MET): 63.2%
- Fik Kinase %Inhibition (FLK-1 receptor): -6.1%

SMILES: O=C1Nc2c(Br)cc(Br)cc2C1=Cc1ccc(O)cc1O [10723/A08]
- PDGF Kinase %Inhibition (PDGF-R): 29.7%
- Met Kinase % Inhibition (MET): 77.3%
- Fik Kinase %Inhibition (FLK-1 receptor): -12.9%

SMILES: COc1ccc(C=C2C(=O)Nc3c(Br)cc(Br)cc32)c(O)c1 [10723/A09]
- PDGF Kinase %Inhibition (PDGF-R): 42.9%
- Met Kinase % Inhibition (MET): 85.9%
- Fik Kinase %Inhibition (FLK-1 receptor): -1.0%

SMILES: O=C1Nc2c(Br)cc(Br)cc2C1=Cc1cccc(Br)c1 [10723/A10]
- PDGF Kinase %Inhibition (PDGF-R): 34.6%
- Met Kinase % Inhibition (MET): 62.1%
- Fik Kinase %Inhibition (FLK-1 receptor): -3.1%

SMILES: CC(C)(C)c1cc(C=C2C(=O)Nc3c(Br)cc(Br)cc32)c(O)c(C(C)(C)C)c1 [10723/A11]
- PDGF Kinase %Inhibition (PDGF-R): 41.5%
- Met Kinase % Inhibition (MET): 60.0%
- Fik Kinase %Inhibition (FLK-1 receptor): 42.9%

SMILES: O=C1Nc2ccc(I)cc2C1=Cc1ccc(O)c(O)c1O [10723/B02]
- PDGF Kinase %Inhibition (PDGF-R): 29.0%
- Met Kinase % Inhibition (MET): 100.3%
- Fik Kinase %Inhibition (FLK-1 receptor): -0.3%

SMILES: COc1cccc(C=C2C(=O)Nc3ccc(I)cc32)c1O [10723/B03]
- PDGF Kinase %Inhibition (PDGF-R): 14.5%
- Met Kinase % Inhibition (MET): 82.5%
- Fik Kinase %Inhibition (FLK-1 receptor): 7.1%

SMILES: O=C1Nc2ccc(I)cc2C1=Cc1cc(O)c(O)c(Br)c1 [10723/B04]
- PDGF Kinase %Inhibition (PDGF-R): 40.1%
- Met Kinase % Inhibition (MET): 90.6%
- Fik Kinase %Inhibition (FLK-1 receptor): 18.7%

SMILES: CC(=O)Oc1ccc(C=C2C(=O)Nc3ccc(I)cc32)cc1OC(C)=O [10723/B05]
- PDGF Kinase %Inhibition (PDGF-R): 15.2%
- Met Kinase % Inhibition (MET): 85.1%
- Fik Kinase %Inhibition (FLK-1 receptor): -15.4%

SMILES: Cc1cc(C=C2C(=O)Nc3ccc(I)cc32)ccc1O [10723/B06]
- PDGF Kinase %Inhibition (PDGF-R): 58.8%
- Met Kinase % Inhibition (MET): 90.6%
- Fik Kinase %Inhibition (FLK-1 receptor): 31.8%

SMILES: O=C1Nc2ccc(I)cc2C1=Cc1ccccc1Br [10723/B07]
- PDGF Kinase %Inhibition (PDGF-R): 24.9%
- Met Kinase % Inhibition (MET): 86.7%
- Fik Kinase %Inhibition (FLK-1 receptor): 6.5%

SMILES: O=C1Nc2ccc(I)cc2C1=Cc1ccc(O)cc1O [10723/B08]
- PDGF Kinase %Inhibition (PDGF-R): 56.1%
- Met Kinase % Inhibition (MET): 82.8%
- Fik Kinase %Inhibition (FLK-1 receptor): 1.0%

SMILES: COc1ccc(C=C2C(=O)Nc3ccc(I)cc32)c(O)c1 [10723/B09]
- PDGF Kinase %Inhibition (PDGF-R): 27.6%
- Met Kinase % Inhibition (MET): 57.7%
- Fik Kinase %Inhibition (FLK-1 receptor): 2.7%

SMILES: O=C1Nc2ccc(I)cc2C1=Cc1cccc(Br)c1 [10723/B10]
- PDGF Kinase %Inhibition (PDGF-R): 17.2%
- Met Kinase % Inhibition (MET): 88.5%
- Fik Kinase %Inhibition (FLK-1 receptor): 5.8%

SMILES: CC(C)(C)c1cc(C=C2C(=O)Nc3ccc(I)cc32)c(O)c(C(C)(C)C)c1 [10723/B11]
- PDGF Kinase %Inhibition (PDGF-R): 22.8%
- Met Kinase % Inhibition (MET): 62.6%
- Fik Kinase %Inhibition (FLK-1 receptor): 6.3%

SMILES: Cc1c(Br)ccc2c1C(=Cc1ccc(O)c(O)c1O)C(=O)N2 [10723/C02]
- PDGF Kinase %Inhibition (PDGF-R): 39.4%
- Met Kinase % Inhibition (MET): 100.6%
- Fik Kinase %Inhibition (FLK-1 receptor): 9.6%
